Reference: ChEMBL document CHEMBL4371021, “BH3 mimetics derived from Bim-BH3 domain core region show PTP1B inhibitory activity” (Bioorg Med Chem Lett, 2019)
Calls of active or inactive are those of the source. The rule behind the calls is not given here. Residues, ends and D or L forms follow the SMILES beside them.

What was measured:
[1] = target: T1, Tyrosine-protein phosphatase non-receptor type 1 (Homo sapiens) (UniProt P18031); assay: Inhibition of recombinant human N-terminal poly histidine-tagged PTP1B (Glu2 to Asn321 residues) expressed in Escherichia coli at 40 umol/L using pNPP as substrate measured for 4 mins relative to control
T1 sequence (whole entry): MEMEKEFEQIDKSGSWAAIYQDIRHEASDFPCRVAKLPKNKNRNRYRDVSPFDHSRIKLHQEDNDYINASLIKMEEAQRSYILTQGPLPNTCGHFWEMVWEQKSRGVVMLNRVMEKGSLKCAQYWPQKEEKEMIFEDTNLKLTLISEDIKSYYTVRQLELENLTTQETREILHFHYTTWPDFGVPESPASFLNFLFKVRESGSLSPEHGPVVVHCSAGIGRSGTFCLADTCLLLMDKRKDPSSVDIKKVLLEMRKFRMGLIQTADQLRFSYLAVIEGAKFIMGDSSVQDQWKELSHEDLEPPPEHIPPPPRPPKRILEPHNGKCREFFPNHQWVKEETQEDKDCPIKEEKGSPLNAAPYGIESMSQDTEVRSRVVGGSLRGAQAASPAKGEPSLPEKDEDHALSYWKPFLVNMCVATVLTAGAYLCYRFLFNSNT

[2] = target: T1, Tyrosine-protein phosphatase non-receptor type 1 (Homo sapiens); assay: Inhibition of recombinant human N-terminal poly histidine-tagged PTP1B (Glu2 to Asn321 residues) expressed in Escherichia coli at 1 umol/L using pNPP as substrate measured for 4 mins relative to control
HepG2 [3] = assay: Induction of insulin-stimulated 2-NBDG uptake in palmitic acid-induced insulin resistant human HepG2 cells at 1 to 10 umol/L preincubated for 24 hrs followed by insulin stimulation and measured after 30 mins by fluorescence assay; assay type: functional, cell-based
[4] = target: Receptor-type tyrosine-protein phosphatase F (Homo sapiens) (UniProt P10586); assay: Inhibition of LAR (unknown origin) at 20 umol/L using OMFP as substrate measured for 4 mins relative to control
[5] = target: T2, Tyrosine-protein phosphatase non-receptor type 11 (Homo sapiens) (UniProt Q06124); assay: Inhibition of human GST-tagged SHP2 (1116 to 2162 residues) at 10 umol/L using OMFP as substrate measured for 4 mins relative to control
T2 sequence (whole entry): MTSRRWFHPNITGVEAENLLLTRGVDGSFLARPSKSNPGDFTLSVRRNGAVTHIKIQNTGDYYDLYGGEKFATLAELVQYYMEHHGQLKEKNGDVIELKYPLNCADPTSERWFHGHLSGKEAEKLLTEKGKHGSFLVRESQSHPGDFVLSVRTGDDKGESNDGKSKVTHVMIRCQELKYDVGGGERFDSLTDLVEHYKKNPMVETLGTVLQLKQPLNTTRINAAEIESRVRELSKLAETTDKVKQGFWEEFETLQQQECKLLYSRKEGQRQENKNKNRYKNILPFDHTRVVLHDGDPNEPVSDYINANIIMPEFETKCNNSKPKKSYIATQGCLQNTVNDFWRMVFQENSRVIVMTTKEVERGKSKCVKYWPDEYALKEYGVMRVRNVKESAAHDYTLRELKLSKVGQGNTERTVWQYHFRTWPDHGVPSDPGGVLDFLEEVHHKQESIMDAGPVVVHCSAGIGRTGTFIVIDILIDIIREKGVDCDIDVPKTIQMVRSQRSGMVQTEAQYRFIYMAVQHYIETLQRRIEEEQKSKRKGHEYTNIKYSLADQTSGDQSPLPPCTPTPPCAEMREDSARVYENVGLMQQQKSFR

HepG2 [6] = assay: Cytotoxicity against human HepG2 cells assessed as effect on cell viability at 0.1 to 10 umol/L after 24 hrs by MTT assay; assay type: cell-based; settings: hepg2, 24 h
[7] = target: T1, Tyrosine-protein phosphatase non-receptor type 1 (Homo sapiens); assay: Inhibition of recombinant human N-terminal poly histidine-tagged PTP1B (Glu2 to Asn321 residues) expressed in Escherichia coli at 5 umol/L using pNPP as substrate measured for 4 mins relative to control
[8] = target: Tyrosine-protein phosphatase non-receptor type 6 (Homo sapiens) (UniProt P29350); assay: Inhibition of SHP1 (unknown origin) at 10 umol/L using OMFP as substrate measured for 4 mins relative to control
[9] = target: T1, Tyrosine-protein phosphatase non-receptor type 1 (Homo sapiens); assay: Binding affinity to recombinant human N-terminal poly histidine-tagged PTP1B (Glu2 to Asn321 residues) expressed in Escherichia coli assessed as dissociation rate constant by surface plasmon resonance analysis
[10] = target: Tyrosine-protein phosphatase non-receptor type 6 (Homo sapiens) (UniProt P29350); assay: Inhibition of SHP1 (unknown origin) at 2.5 umol/L using OMFP as substrate measured for 4 mins relative to control
[11] = target: T1, Tyrosine-protein phosphatase non-receptor type 1 (Homo sapiens); assay: Inhibition of recombinant human N-terminal poly histidine-tagged PTP1B (Glu2 to Asn321 residues) expressed in Escherichia coli at 0.5 umol/L using pNPP as substrate measured for 4 mins relative to control
[12] = target: T1, Tyrosine-protein phosphatase non-receptor type 1 (Homo sapiens); assay: Inhibition of recombinant human N-terminal poly histidine-tagged PTP1B (Glu2 to Asn321 residues) expressed in Escherichia coli at 10 umol/L using pNPP as substrate measured for 4 mins relative to control
[13] = target: Receptor-type tyrosine-protein phosphatase F (Homo sapiens) (UniProt P10586); assay: Inhibition of LAR (unknown origin) at 2.5 umol/L using OMFP as substrate measured for 4 mins relative to control
[14] = target: T3, Tyrosine-protein phosphatase non-receptor type 2 (Homo sapiens) (UniProt P17706); assay: Inhibition of human GST-tagged TCPTP (41 to 1075 residues) expressed in Escherichia coli at 20 umol/L using pNPP as substrate measured for 4 mins relative to control
T3 sequence (whole entry): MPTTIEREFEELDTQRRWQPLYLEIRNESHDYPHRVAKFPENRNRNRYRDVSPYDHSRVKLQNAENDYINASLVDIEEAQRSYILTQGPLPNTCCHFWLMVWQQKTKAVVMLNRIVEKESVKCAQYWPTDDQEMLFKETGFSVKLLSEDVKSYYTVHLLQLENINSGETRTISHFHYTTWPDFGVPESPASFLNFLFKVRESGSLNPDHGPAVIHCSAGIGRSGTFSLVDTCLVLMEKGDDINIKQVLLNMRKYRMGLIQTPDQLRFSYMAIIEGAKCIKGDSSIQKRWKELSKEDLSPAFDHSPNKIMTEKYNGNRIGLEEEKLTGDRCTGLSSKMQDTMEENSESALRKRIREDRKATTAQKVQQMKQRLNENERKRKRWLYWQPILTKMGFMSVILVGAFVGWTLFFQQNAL

[15] = target: T4, Tyrosine-protein phosphatase non-receptor type 1 (Homo sapiens, UniProt P18031); assay: Binding affinity to recombinant human N-terminal poly histidine-tagged PTP1B (Glu2 to Asn321 residues) expressed in Escherichia coli by surface plasmon resonance analysis
T4 sequence (P18031 whole entry): T1 sequence (whole entry)

[16] = target: T3, Tyrosine-protein phosphatase non-receptor type 2 (Homo sapiens); assay: Inhibition of human GST-tagged TCPTP (41 to 1075 residues) expressed in Escherichia coli at 5 umol/L using pNPP as substrate measured for 4 mins relative to control
[17] = target: T3, Tyrosine-protein phosphatase non-receptor type 2 (Homo sapiens); assay: Inhibition of human GST-tagged TCPTP (41 to 1075 residues) expressed in Escherichia coli at 10 umol/L using pNPP as substrate measured for 4 mins relative to control
[18] = target: T4, Tyrosine-protein phosphatase non-receptor type 1; assay: Inhibition of recombinant human N-terminal poly histidine-tagged PTP1B (Glu2 to Asn321 residues) expressed in Escherichia coli using pNPP as substrate measured for 4 mins
[19] = target: T2, Tyrosine-protein phosphatase non-receptor type 11 (Homo sapiens); assay: Inhibition of human GST-tagged SHP2 (1116 to 2162 residues) at 5 umol/L using OMFP as substrate measured for 4 mins relative to control
[20] = target: T1, Tyrosine-protein phosphatase non-receptor type 1 (Homo sapiens); assay: Inhibition of recombinant human N-terminal poly histidine-tagged PTP1B (Glu2 to Asn321 residues) expressed in Escherichia coli at 2.5 umol/L using pNPP as substrate measured for 4 mins relative to control
[21] = target: T2, Tyrosine-protein phosphatase non-receptor type 11 (Homo sapiens); assay: Inhibition of human GST-tagged SHP2 (1116 to 2162 residues) at 0.5 umol/L using OMFP as substrate measured for 4 mins relative to control
[22] = target: Tyrosine-protein phosphatase non-receptor type 6 (Homo sapiens) (UniProt P29350); assay: Inhibition of SHP1 (unknown origin) at 0.5 umol/L using OMFP as substrate measured for 4 mins relative to control
[23] = target: Tyrosine-protein phosphatase non-receptor type 6 (Homo sapiens) (UniProt P29350); assay: Inhibition of SHP1 (unknown origin) at 1 umol/L using OMFP as substrate measured for 4 mins relative to control
[24] = target: T2, Tyrosine-protein phosphatase non-receptor type 11 (Homo sapiens); assay: Inhibition of human GST-tagged SHP2 (1116 to 2162 residues) at 2.5 umol/L using OMFP as substrate measured for 4 mins relative to control
[25] = target: T3, Tyrosine-protein phosphatase non-receptor type 2 (Homo sapiens); assay: Inhibition of human GST-tagged TCPTP (41 to 1075 residues) expressed in Escherichia coli at 2.5 umol/L using pNPP as substrate measured for 4 mins relative to control
[26] = target: T2, Tyrosine-protein phosphatase non-receptor type 11 (Homo sapiens); assay: Inhibition of human GST-tagged SHP2 (1116 to 2162 residues) at 20 umol/L using OMFP as substrate measured for 4 mins relative to control
[27] = target: Tyrosine-protein phosphatase non-receptor type 6 (Homo sapiens) (UniProt P29350); assay: Inhibition of SHP1 (unknown origin) at 5 umol/L using OMFP as substrate measured for 4 mins relative to control
[28] = target: Tyrosine-protein phosphatase non-receptor type 6 (Homo sapiens) (UniProt P29350); assay: Inhibition of SHP1 (unknown origin) at 20 umol/L using OMFP as substrate measured for 4 mins relative to control
[29] = target: T3, Tyrosine-protein phosphatase non-receptor type 2 (Homo sapiens); assay: Inhibition of human GST-tagged TCPTP (41 to 1075 residues) expressed in Escherichia coli at 0.5 umol/L using pNPP as substrate measured for 4 mins relative to control
[30] = target: T1, Tyrosine-protein phosphatase non-receptor type 1 (Homo sapiens); assay: Inhibition of recombinant human N-terminal poly histidine-tagged PTP1B (Glu2 to Asn321 residues) expressed in Escherichia coli at 20 umol/L using pNPP as substrate measured for 4 mins relative to control
[31] = target: Receptor-type tyrosine-protein phosphatase F (Homo sapiens) (UniProt P10586); assay: Inhibition of LAR (unknown origin) at 0.5 umol/L using OMFP as substrate measured for 4 mins relative to control
[32] = target: Receptor-type tyrosine-protein phosphatase F (Homo sapiens) (UniProt P10586); assay: Inhibition of LAR (unknown origin) at 1 umol/L using OMFP as substrate measured for 4 mins relative to control
[33] = target: T3, Tyrosine-protein phosphatase non-receptor type 2 (Homo sapiens); assay: Inhibition of human GST-tagged TCPTP (41 to 1075 residues) expressed in Escherichia coli at 1 umol/L using pNPP as substrate measured for 4 mins relative to control
HepG2 [34] = assay: Inhibition of PTP1B expression in palmitic acid-induced insulin resistant human HepG2 cells at 0.1 to 10 uM by western blot analysis; assay type: functional, cell-based
[35] = target: T1, Tyrosine-protein phosphatase non-receptor type 1 (Homo sapiens); assay: Binding affinity to recombinant human N-terminal poly histidine-tagged PTP1B (Glu2 to Asn321 residues) expressed in Escherichia coli assessed as association rate constant by surface plasmon resonance analysis
[36] = target: Receptor-type tyrosine-protein phosphatase F (Homo sapiens) (UniProt P10586); assay: Inhibition of LAR (unknown origin) at 5 umol/L using OMFP as substrate measured for 4 mins relative to control
[37] = target: Receptor-type tyrosine-protein phosphatase F (Homo sapiens) (UniProt P10586); assay: Inhibition of LAR (unknown origin) at 10 umol/L using OMFP as substrate measured for 4 mins relative to control
[38] = target: T2, Tyrosine-protein phosphatase non-receptor type 11 (Homo sapiens); assay: Inhibition of human GST-tagged SHP2 (1116 to 2162 residues) at 1 umol/L using OMFP as substrate measured for 4 mins relative to control

Receptor-type tyrosine-protein phosphatase F (Homo sapiens), sequence (P10586 whole entry, the tested form may be a part): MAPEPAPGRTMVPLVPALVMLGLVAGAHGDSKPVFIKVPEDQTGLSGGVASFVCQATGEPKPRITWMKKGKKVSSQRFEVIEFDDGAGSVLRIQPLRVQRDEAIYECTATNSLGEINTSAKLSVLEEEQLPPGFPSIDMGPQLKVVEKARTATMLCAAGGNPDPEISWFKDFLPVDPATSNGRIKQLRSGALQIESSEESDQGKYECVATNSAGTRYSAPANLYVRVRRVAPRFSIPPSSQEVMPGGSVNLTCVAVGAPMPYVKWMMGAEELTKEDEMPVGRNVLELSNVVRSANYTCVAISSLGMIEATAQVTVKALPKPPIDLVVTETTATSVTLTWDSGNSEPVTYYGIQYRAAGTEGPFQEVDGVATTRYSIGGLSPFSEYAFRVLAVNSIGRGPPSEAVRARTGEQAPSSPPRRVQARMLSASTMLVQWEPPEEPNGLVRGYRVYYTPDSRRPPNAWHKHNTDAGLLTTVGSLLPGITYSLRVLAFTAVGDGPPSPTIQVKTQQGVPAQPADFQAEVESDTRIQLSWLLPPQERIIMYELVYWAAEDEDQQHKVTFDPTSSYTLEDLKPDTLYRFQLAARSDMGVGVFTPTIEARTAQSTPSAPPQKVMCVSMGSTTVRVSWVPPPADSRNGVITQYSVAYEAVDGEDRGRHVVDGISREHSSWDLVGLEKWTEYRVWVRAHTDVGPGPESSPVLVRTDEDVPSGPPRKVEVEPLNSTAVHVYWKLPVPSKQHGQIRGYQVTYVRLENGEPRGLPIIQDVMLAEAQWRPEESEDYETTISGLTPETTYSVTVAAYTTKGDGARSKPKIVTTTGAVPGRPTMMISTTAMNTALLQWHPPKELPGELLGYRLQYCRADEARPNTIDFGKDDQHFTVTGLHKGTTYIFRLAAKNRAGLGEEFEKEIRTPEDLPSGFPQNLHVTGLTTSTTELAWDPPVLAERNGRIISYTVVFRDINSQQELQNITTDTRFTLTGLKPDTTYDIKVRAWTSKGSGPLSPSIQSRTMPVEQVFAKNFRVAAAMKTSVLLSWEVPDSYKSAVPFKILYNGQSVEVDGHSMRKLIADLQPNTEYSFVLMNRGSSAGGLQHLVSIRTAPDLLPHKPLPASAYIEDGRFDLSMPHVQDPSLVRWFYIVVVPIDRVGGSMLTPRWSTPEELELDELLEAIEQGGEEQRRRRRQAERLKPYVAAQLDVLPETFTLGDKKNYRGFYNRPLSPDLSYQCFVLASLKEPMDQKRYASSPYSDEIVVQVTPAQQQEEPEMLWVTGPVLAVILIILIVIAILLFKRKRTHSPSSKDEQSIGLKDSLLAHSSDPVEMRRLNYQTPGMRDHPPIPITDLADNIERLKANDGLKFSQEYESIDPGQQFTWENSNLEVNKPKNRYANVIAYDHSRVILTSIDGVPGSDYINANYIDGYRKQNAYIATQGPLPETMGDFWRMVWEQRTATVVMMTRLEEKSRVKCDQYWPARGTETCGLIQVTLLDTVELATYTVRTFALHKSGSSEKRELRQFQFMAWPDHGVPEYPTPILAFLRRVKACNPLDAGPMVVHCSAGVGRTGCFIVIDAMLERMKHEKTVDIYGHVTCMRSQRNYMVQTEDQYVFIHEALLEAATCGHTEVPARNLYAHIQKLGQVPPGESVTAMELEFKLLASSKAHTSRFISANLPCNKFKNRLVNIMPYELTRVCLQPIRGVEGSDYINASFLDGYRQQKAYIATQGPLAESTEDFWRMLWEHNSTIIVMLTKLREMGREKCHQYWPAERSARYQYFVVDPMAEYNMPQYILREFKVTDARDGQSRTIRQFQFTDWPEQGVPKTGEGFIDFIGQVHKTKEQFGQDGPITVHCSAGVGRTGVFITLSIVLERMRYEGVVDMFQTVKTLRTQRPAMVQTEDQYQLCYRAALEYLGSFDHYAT
Tyrosine-protein phosphatase non-receptor type 6 (Homo sapiens), sequence (P29350 whole entry, the tested form may be a part): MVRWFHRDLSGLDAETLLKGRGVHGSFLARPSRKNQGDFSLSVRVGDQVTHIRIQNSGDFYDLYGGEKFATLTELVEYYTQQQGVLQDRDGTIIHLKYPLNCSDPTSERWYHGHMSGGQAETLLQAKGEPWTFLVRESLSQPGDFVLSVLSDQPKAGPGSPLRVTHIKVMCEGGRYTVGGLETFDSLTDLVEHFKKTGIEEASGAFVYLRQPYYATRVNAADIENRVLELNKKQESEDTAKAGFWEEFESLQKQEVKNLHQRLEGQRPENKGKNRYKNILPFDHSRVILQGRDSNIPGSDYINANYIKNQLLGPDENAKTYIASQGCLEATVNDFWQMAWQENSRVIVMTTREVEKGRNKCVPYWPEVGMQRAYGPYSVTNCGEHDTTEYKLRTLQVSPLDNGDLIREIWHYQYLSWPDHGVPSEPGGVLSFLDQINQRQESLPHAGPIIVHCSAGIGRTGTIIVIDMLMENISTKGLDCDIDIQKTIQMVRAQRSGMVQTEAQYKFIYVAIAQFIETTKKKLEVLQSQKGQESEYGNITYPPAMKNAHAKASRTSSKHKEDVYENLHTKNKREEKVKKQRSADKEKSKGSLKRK

Compound: Ac-WIAQELRRIGDEFN-NH2
- inhibition [1]: 9.43%

Compound: Ac-IAQELRRIGDEF-NH2
- inhibition [1]: 2.1%

Compound: CCCCCCCCCCCCCCCC(=O)N[C@H](C(=O)N[C@@H](C)C(=O)N[C@@H](CCC(N)=O)C(=O)N[C@@H](CCC(=O)O)C(=O)N[C@@H](CC(C)C)C(=O)N[C@@H](CCCNC(=N)N)C(=O)N[C@@H](CCCNC(=N)N)C(=O)N[C@H](C(=O)NCC(=O)N[C@@H](CC(=O)O)C(=O)N[C@@H](CCC(=O)O)C(=O)N[C@@H](Cc1ccccc1)C(N)=O)[C@@H](C)CC)[C@@H](C)CC (HELM PEPTIDE1{[CCCCCCCCCCCCCCCC(=O)[*:2]].I.A.Q.E.L.R.R.I.G.D.E.F.[am]}$$$$V2.0)
- inhibition [2]: 47.2%
- Activity (HepG2 [3]): Active
- inhibition [4]: 1.73%
- inhibition [5]: 2.77%
- Activity (HepG2 [6]): Non-Toxic
- inhibition [7]: 89.3%
- inhibition [8]: 3.89%
- Kdiss [9]: 1.82 ×10⁻⁴ /s
- inhibition [10]: 2.88%
- inhibition [11]: 8.68%
- inhibition [12]: 92%
- inhibition [13]: 2.33%
- inhibition [14]: 35.2%
- Kd [15]: 8.38 nM
- inhibition [16]: 8.63%
- inhibition [17]: 12.2%
- IC50 [18]: 1200 nM
- inhibition [19]: 2.83%
- inhibition [20]: 80.6%
- inhibition [1]: 98%
- inhibition [21]: 0.96%
- inhibition [22]: 2.03%
- inhibition [23]: 1.36%
- inhibition [24]: 3.52%
- inhibition [25]: 8.22%
- inhibition [26]: 10.6%
- inhibition [27]: 2.22%
- inhibition [28]: 9.22%
- inhibition [29]: 5.25%
- inhibition [30]: 93.7%
- inhibition [31]: 2.02%
- inhibition [32]: 3.88%
- inhibition [33]: 6.22%
- inhibition (HepG2 [34]): Active
- Ka [35]: 2.17 ×10⁴ /Ms
- inhibition [36]: 1.52%
- inhibition [37]: 3.36%
- inhibition [38]: 2.02%

Compound: Ac-IAQELRRIGDEFNA-NH2
- inhibition [1]: 3.31%

Compound: Ac-IWIAQELRRIGDEFNA-NH2
- Kdiss [9]: 6.38 ×10⁻⁴ /s
- Kd [15]: 26.9 nM
- inhibition [1]: 2.32%
- Ka [35]: 2.37 ×10⁴ /Ms
